Measured values reported in patent publication US6201006A, “Aromatic amidine derivatives useful as selective thrombin inhibitors” (C & C Research Laboratories, priority 1996, dated 2001).

Target: T1, human thrombin (Homo sapiens, UniProt P00734)
T1 construct: purchased Sigma T-6759
Test: Inhibitory activity for thrombin (chromogenic substrate hydrolysis, 405 nm)
Format: biochemical
Conditions: for IC50: human thrombin, 20 min, pH 8.0, N-benzoyl-Phe-Val-Arg-p-nitroanilide; for Selectivity (trypsin/thrombin): IC50 for trypsin divided by IC50 for thrombin
Procedure: 20 μl of each compound of the present invention was dissolved in 50% methanol in various concentrations and then added to each well of a microplate, to each of which 160 μl of the reaction medium containing 125 mM NaCl, 50 mM Tris-HCl (pH 8.0) and 2 mM synthetic substrate (N-benzoyl-Phe-Val-Arg-p-nitroanilide, Sigma B-7632) were added. 20 μl of human thrombin solution (5 units/ml, Sigma T-6759, manufactured by Sigma Co.) containing 0.1% bovine serum albumin was added to each well to initiate the enzymatic reaction. After 20 minutes, the hydrolysis of substrate was determined by measuring the absorbance at 405 nm. […] The selectivity index was calculated by dividing the IC50 value for trypsin by the IC50 value for thrombin. The thrombin inhibitory activity and the trypsin inhibitory activity for the compound of the present invention are shown in the following Table 2.

Structure (SMILES) | IC50 | Selectivity (trypsin/thrombin)
CCn1c(CC[C@@H]2CCCN2C(=O)C(CC(=O)O)NC2CC2)cc2ccc(C(=N)N)cc21 (stereo partly drawn) [Compound 73, 4-[(S)-2-[2-(6-amidino-1-ethylindol-2-yl)ethyl]pyrrolidinyl]-3-cyclopropylamino-4-oxobutanoic acid] | 33.2 nM | 
CCn1c(CC[C@@H]2CCCN2C(=O)[C@H](NCC(=O)O)c2ccccc2)cc2ccc(C(=N)N)cc21 [Compound 40, 2-[[(R)-2-[2-(S)-2-[2-(6-amidino-1-ethylindol-2-yl)ethyl]pyrrolidinyl]-2-oxo-1-phenylethyl]amino]acetic acid] | 7.95 nM | 
CCn1c(CC[C@@H]2CCCN2C(=O)C2CCCNC2)cc2ccc(C(=N)N)cc21 (stereo partly drawn) [Compound 194, 1-ethyl-2-[2-[(S)-1-[(3-piperidinyl)carbonyl]pyrrolidin-2-yl]ethyl]indole-6-carboxamidine] | 31.7 nM | 
CCn1c(CC[C@@H]2CCCN2C(=O)[C@H]2CCCN2C(=O)C2CCNCC2)cc2ccc(C(=N)N)cc21 [Compound 169, 1-ethyl-2-[2-[(S)-1-[[(R)-1-[(4-piperidinyl)carbonyl]pyrrolidin-2-yl]carbonyl]pyrrolidin-2-yl]ethyl]indole-6-carboxamidine] | 30.2 nM | 
CCn1c(CC[C@@H]2CCCN2C(=O)CC2CCCCC2)cc2ccc(C(=N)N)cc21 [Compound 46, 1ethyl-2-[2-[(S)-1-(2-cyclohexylacetyl)pyrrolidin-2-yl]ethyl]indole-6-carboxamidine] | 28.9 nM | 
CCOC(=O)CCC(=O)N1CCC[C@@H]1C(=O)N1CCC[C@H]1CCc1cc2ccc(C(=N)N)cc2n1CC [Compound 176, ethyl 4-[(R)-2-[[(S)-2-[2-(6-amidino-1-ethylindol-2-yl)ethyl]pyrrolidinyl]carbonyl]pyrrolidinyl]-4-oxobutanoate] | 21.7 nM | 20.7
CCOC(=O)CC(=O)N1CCC[C@@H]1C(=O)N1CCC[C@H]1CCc1cc2ccc(C(=N)N)cc2n1CC [Compound 174, ethyl 3-[(R)-2-[[(S)-2-[2-(6-amidino-1-ethylindol-2-yl)ethyl]pyrrolidinyl]carbonyl]pyrrolidinyl]-3-oxopropanoate] | 16.2 nM | 25.7
CCn1c(CC[C@@H]2CCCN2C(=O)[C@H](NCC(N)=O)c2ccccc2)cc2ccc(C(=N)N)cc21 [Compound 39, 1ethyl-2-[2-[(S)-1-[(R)-2-(carbamoylmethylamino)-2-phenylacetyl]pyrrolidin-2-yl]ethyl]indole-6-carboxamidine] | 6.91 nM | 
CCOC(=O)CC(NC1CC1)C(=O)N1CCC[C@H]1CCc1cc2ccc(C(=N)N)cc2n1CC (stereo partly drawn) [Compound 72, ethyl 4-[(S)-2-[2-(6-amidino-1-ethylindol-2-yl)ethyl]pyrrolidinyl]-3-cyclopropylamino-4-oxobutanoate] | 9.4 nM | 13.6
CCn1c(CC[C@@H]2CCCN2C(=O)CNC2CC2)cc2ccc(C(=N)N)cc21 [Compound 57, 1-ethyl-2-[2-[(S)-1-(2-cyclopropylaminoacetyl)pyrrolidin-2-yl]ethyl]indole-6-carboxamidine] | 7.73 nM | 
CCOC(=O)CN(C1CC1)C(C)C(=O)N1CCC[C@H]1CCc1cc2ccc(C(=N)N)cc2n1CC (stereo partly drawn) [Compound 64, ethyl 2-[[2-[(S)-2-[2-(6-amidino-1-ethylindol-2-yl)ethyl]pyrrolidinyl]-1-methyl-2-oxoethyl]cyclo-propylamino]acetate] | 15.2 nM | 22.9
CCOC(=O)Cn1c(CC[C@@H]2CCCN2C(=O)[C@H]2CCCN2C(C)=O)cc2ccc(C(=N)N)cc21 [Compound 222, ethyl 2-[2-[2-[(S)-1-[((R)-1-acetylpyrrolidin-2-yl)carbonyl]pyrrolidin-2-yl]ethyl]-6-amidinoindolyl]acetate] | 11.4 nM | 
CCn1c(CC[C@@H]2CCCN2C(=O)[C@H]2CCCN2C(=O)CCNS(C)(=O)=O)cc2ccc(C(=N)N)cc21 [Compound 158, 1-ethyl-2-[2-[(S)-1-[[(R)-1-[3-[(methanesulfonyl)amino]propanoyl]pyrrolidin-2-yl]carbonyl]pyrrolidin-2-yl]ethyl]indole-6-carboxamidine] | 5.5 nM | 

Results, then the molecule that gave them:

IC50 | Selectivity (trypsin/thrombin) | Structure (SMILES)
31.8 nM |  | CCn1c(CC[C@@H]2CCCN2C(=O)[C@H]2CCCN2CC(=O)NC2CC2)cc2ccc(C(=N)N)cc21 [Compound 115, 1-ethyl-2-[2-[(S)-1-[[(R)-1-[(N-cyclopropylcarbamoyl)methyl]pyrrolidin-2-yl]carbonyl]pyrrolidin-2-yl]-ethyl]indole-6-carboxamidine]
33.1 nM |  | CCn1c(CC[C@@H]2CCCN2C(=O)[C@H]2CCCN2C(=O)CNC)cc2ccc(C(=N)N)cc21 [Compound 142, 1-ethyl-2-[2-[(S)-1-[[(R)-1-[2-(methylamino)acetyl]pyrrolidin-2-yl]carbonyl]pyrrolidin-2-yl]ethyl]indole-6-carboxamidine]
37.2 nM | 14.4 | CCOC(=O)C1CCCN1CC(=O)N1CCC[C@H]1CCc1cc2ccc(C(=N)N)cc2n1CC (stereo partly drawn) [Compound 196, ethyl 1-[2-[(S)-2-[2-(6-amidino-1-ethylindol-2-yl)ethyl]pyrrolidinyl]-2-oxoethyl]pyrrolidine-2-carboxylate]
9.92 nM |  | CCn1c(CC[C@@H]2CCCN2C(=O)[C@H]2CCCN2C(=O)CC(N)=O)cc2ccc(C(=N)N)cc21 [Compound 175, 1-ethyl-2-[2-[(S)-1-[[(R)-1-(2-carbamoylacetyl)pyrrolidin-2-yl]carbonyl]pyrrolidin-2-yl]ethyl]indole-6-carboxamidine]
13.1 nM | 10.6 | CCn1c(CC[C@@H]2CCCN2C(=O)[C@H]2CCCN2CCCCC(=O)O)cc2ccc(C(=N)N)cc21 [Compound 129, 5-[(R)-2-[[(S)-2-[2-(6-amidino-1-ethylindol-2-yl)-ethyl]pyrrolidinyl]carbonyl]pyrrolidinyl]pentanoic acid]
26.9 nM |  | CCn1c(CC[C@@H]2CCCN2C(=O)[C@H]2CCCN2C(=O)CC(C)N)cc2ccc(C(=N)N)cc21 (stereo partly drawn) [Compound 157, 1-ethyl-2-[2-[(S)-1-[[(R)-1-(3-amino-butanoyl)pyrrolidin-2-yl]carbonyl]pyrrolidin-2-yl]ethyl]indole-6-carboxamidine]
32.9 nM |  | CCn1c(CCC2CCCN2C(=O)C2CCCN2C(CC(=O)O)C(=O)O)cc2ccc(C(=N)N)cc21 [Compound 123, 1-[(R)-2-[[(S)-2-[2-(6-amidino-1-ethyl-indol-2-yl)ethyl]pyrrolidinyl]carbonyl]pyrrolidinyl]ethane-1,2-dicarboxylic acid]
25.3 nM |  | CCC(N)C(=O)N1CCC[C@@H]1C(=O)N1CCC[C@H]1CCc1cc2ccc(C(=N)N)cc2n1CC (stereo partly drawn) [Compound 144, 1-ethyl-2-[2-[(S)-1-[[(R)-1-(2-aminobutanoyl)pyrrolidin-2-yl]carbonyl]pyrrolidin-2-yl]ethyl]indole-6-carboxamidine]
20.3 nM |  | CCn1c(CC[C@H]2C[C@H](C)CN2C(=O)[C@H]2CCCN2CC(=O)O)cc2ccc(C(=N)N)cc21 [Compound 98, 2-[(R)-2-[[(S)-2-[2-(6-amidino-1-ethylindol-2-yl)ethyl]-(S)-4-methylpyrrolidinyl]carbonyl]pyrrolidinyl]acetic acid]
